The results in this text go back to patent EP3225257A1, “AMPHIPHILIC MONOMERS BASED NANOVECTORS AND THEIR USE FOR SIRNA DELIVERY” (Université de Strasbourg, priority 2016, dated 2017).

The assay has as its system A549-luc cells. As to the kind of experiment: siRNA delivery, luciferase gene silencing. In kind it is cell-based, human. The note with it: 10 nM siRNA, 48 h. As to the method:
The A549-luc cells that stably express the reporter gene luciferase GL3 (1-2 x 10^10 RLU/mg protein) were established by transfecting human lung carcinoma A549 cells (CCL-185; ATCC) with pGL3-Luc plasmid (Clontech, Mountain View, CA, USA) using jetPEI™ as delivery system (Polyplus-Transfection, Illkirch, France). Cells were grown in RPMI 1640 medium (Eurobio, Les Ulis, France) supplemented with 10% Fetal Bovine Serum (Eurobio, Les Ulis, France), 1% antibiotic solution (pencillin-streptomycin, Gibco-invitrogen) and maintained under 0.8 µg/mL G418 selection (Promega, Madison, WI, USA) at 37 °C in a 5% CO2 humidified atmosphere. […]
Luciferase gene expression was determined 48 h after delivery with a Luciferase Assay System (Promega, Charbonnières, France) according to manufacturer's instructions. The luminescence was quantified using 2 µL of cell lysate with a Centro LB luminometer (Berthold, Thoiry, France). Protein concentration in cell lysate was measured by using a BCA assay kit (Interchim, Montluçon, France), according to manufacturer's instructions. After expressing the luciferase activity as relative light units integrated over 10 s per mg of cell protein (RLU/mg), the luciferase gene silencing was calculated relative to the luciferase activity of non-transfected A549-luc cells.

Turning to C25diynetrioxa-L-Histidine [compound 1], the specific inhibition (40 µg/ml, polymerized micelles of the surfactant) is given as 80%. For the substance C25diynetrioxaamine [compound 2], the maximum inhibition (polymerized micelles of the surfactant at increasing concentrations) is listed as 25%.
